Tests used:
Glutamate NMDA receptor [1] = test: Displacement of [3H]CGP 39653 from NMDA receptor in rat synaptosomes; type: subcellular, Brain
[2] = target: Glutamate receptor ionotropic, kainate 2 (Rattus norvegicus, UniProt P42260); test: Displacement of [3H]KA from rat recombinant GluR6 expressed in Sf9 cells
Glutamate receptor 2 = Glutamate receptor 2 (Rattus norvegicus, UniProt P19491); test: biochemical
Description: Displacement of [3H]AMPA from rat recombinant GluR2 expressed in Sf9 cells

[3] = target: Glutamate receptor ionotropic, kainate 1 (Rattus norvegicus, UniProt P22756); test: biochemical
Chain of Glutamate receptor ionotropic, kainate 1 (P22756 whole entry): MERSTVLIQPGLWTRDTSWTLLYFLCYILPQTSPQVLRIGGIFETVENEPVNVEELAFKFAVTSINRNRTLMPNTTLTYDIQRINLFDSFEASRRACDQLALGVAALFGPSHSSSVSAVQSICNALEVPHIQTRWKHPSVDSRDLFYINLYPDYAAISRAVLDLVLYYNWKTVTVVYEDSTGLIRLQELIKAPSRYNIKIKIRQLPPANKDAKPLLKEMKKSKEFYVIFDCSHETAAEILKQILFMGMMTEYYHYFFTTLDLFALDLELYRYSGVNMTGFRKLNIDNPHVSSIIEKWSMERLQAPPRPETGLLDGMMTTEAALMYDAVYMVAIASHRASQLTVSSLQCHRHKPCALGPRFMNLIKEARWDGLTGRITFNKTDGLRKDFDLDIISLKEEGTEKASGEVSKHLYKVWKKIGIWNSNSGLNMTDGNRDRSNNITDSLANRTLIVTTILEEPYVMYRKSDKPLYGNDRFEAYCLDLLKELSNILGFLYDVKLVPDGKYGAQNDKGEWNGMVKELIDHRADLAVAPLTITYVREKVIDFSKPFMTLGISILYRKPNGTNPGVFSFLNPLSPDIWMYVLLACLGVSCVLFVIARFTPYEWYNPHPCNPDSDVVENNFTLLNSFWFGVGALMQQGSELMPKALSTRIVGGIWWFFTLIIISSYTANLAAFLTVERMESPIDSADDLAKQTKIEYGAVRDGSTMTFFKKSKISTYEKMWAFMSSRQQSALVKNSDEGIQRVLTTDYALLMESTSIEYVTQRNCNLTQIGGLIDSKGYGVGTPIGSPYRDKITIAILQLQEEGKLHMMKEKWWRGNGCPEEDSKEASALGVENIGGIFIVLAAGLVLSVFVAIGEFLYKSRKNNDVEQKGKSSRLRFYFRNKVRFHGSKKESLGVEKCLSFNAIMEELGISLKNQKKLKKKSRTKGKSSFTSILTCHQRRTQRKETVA
Description: Displacement of [3H]SYM 2081 from rat recombinant GluR5 expressed in Sf9 cells

[4] = Displacement of [3H]KA from kainate receptor in rat synaptosomes; type: subcellular, Brain
Glutamate receptor 1 = Glutamate receptor 1 (Rattus norvegicus, UniProt P19490); test: biochemical
Chain of Glutamate receptor 1 (P19490 whole entry): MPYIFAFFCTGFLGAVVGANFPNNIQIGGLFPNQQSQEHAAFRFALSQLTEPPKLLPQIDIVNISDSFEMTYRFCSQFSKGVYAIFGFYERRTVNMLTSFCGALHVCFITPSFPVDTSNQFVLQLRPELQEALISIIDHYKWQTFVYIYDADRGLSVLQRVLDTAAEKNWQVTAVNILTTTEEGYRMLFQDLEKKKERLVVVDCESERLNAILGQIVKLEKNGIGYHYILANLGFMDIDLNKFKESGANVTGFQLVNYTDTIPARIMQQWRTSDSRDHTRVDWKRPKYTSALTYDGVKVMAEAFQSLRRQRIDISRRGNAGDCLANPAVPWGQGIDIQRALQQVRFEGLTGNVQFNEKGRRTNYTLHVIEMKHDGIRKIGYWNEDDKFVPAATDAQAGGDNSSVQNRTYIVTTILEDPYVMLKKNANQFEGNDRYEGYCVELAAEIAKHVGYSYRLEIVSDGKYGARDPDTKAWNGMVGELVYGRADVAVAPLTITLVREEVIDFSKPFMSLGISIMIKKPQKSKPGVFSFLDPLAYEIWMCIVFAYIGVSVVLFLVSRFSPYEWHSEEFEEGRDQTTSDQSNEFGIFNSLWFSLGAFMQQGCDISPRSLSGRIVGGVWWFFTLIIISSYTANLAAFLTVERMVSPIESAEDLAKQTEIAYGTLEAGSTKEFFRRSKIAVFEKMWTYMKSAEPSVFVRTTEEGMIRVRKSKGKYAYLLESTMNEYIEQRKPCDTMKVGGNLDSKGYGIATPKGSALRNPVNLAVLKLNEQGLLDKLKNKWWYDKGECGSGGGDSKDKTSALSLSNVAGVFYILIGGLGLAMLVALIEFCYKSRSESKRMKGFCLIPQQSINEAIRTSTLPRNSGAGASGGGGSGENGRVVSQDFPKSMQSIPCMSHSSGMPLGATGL
Description: Displacement of [3H]AMPA from rat recombinant GluR1 expressed in Sf9 cells

Glutamate receptor 4 = Glutamate receptor 4 (Rattus norvegicus, UniProt P19493); test: biochemical
Chain of Glutamate receptor 4 (P19493 whole entry): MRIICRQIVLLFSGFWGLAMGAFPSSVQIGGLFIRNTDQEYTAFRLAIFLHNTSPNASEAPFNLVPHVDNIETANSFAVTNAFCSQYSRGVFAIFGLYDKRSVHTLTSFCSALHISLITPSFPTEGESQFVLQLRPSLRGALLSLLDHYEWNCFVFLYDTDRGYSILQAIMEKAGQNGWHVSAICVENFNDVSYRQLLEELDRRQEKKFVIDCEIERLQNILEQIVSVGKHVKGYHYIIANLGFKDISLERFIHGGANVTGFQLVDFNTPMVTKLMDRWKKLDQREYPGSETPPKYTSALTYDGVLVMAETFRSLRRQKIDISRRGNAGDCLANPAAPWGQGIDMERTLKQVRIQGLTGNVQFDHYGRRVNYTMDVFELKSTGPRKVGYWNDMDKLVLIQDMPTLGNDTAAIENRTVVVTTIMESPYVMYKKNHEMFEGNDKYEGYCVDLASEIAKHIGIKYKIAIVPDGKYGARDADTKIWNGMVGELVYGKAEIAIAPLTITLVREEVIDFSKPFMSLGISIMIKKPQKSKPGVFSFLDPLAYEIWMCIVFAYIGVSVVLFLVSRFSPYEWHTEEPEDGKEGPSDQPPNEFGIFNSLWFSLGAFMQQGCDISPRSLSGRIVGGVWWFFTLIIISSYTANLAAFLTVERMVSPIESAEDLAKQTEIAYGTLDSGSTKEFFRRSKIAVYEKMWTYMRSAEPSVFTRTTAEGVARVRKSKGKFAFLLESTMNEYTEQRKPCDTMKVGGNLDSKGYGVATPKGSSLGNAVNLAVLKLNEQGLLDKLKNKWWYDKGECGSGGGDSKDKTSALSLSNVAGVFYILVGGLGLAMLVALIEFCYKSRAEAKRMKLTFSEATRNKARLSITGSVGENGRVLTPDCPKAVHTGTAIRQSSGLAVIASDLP
Description: Displacement of [3H]AMPA from rat recombinant GluR4 expressed in Sf9 cells

[5] = Activity at ionotropic GluR in rat cortical wedge by electrophysiology assay
Glutamate receptor 3 = Glutamate receptor 3 (Rattus norvegicus, UniProt P19492); test: biochemical
Chain of Glutamate receptor 3 (P19492 whole entry): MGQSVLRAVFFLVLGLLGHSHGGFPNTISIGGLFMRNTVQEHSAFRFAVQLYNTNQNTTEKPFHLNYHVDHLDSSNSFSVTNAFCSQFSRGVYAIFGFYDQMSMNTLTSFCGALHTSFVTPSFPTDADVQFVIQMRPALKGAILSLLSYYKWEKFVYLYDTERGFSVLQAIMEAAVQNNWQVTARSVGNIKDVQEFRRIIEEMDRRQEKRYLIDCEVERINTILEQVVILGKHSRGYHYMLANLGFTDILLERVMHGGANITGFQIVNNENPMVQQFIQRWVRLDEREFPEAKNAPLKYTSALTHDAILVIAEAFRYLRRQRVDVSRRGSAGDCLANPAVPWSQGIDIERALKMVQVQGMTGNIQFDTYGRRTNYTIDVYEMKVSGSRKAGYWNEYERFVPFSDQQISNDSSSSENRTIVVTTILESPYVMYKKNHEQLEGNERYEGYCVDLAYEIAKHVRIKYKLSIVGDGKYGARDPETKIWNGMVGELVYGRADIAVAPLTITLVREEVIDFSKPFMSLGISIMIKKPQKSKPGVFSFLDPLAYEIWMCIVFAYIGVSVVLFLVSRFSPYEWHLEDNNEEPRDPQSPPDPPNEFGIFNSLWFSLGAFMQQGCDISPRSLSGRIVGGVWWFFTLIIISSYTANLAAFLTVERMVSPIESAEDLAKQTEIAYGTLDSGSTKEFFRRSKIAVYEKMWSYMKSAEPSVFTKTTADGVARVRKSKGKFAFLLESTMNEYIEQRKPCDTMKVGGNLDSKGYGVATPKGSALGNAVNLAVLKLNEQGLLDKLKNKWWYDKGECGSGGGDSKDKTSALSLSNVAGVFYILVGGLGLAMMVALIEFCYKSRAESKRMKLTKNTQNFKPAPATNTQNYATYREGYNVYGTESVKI
Description: Displacement of [3H]AMPA from rat recombinant GluR3 expressed in Sf9 cells

[6] = Displacement of [3H]AMPA from AMPA receptor in rat synaptosomes; type: subcellular, Brain
Glutamate NMDA receptor [7] = test: Displacement of [3H][…] from NMDA receptor in rat synaptosomes; type: subcellular, Brain
[8] = Agonist activity at GluR2 L483Y mutant expressed in Xenopus laevis oocytes assessed as by effect on glutamate-induced current relative to glutamate; type: functional, Homo sapiens, Oocyte
[9] = Agonist activity at GluR2 L483Y mutant expressed in Xenopus laevis oocytes assessed as by effect on glutamate-induced current by two-electrode voltage clamp assay; type: functional, cell-based; details: Homo sapiens, Oocyte

Chain of Glutamate receptor 2 (P19491 whole entry): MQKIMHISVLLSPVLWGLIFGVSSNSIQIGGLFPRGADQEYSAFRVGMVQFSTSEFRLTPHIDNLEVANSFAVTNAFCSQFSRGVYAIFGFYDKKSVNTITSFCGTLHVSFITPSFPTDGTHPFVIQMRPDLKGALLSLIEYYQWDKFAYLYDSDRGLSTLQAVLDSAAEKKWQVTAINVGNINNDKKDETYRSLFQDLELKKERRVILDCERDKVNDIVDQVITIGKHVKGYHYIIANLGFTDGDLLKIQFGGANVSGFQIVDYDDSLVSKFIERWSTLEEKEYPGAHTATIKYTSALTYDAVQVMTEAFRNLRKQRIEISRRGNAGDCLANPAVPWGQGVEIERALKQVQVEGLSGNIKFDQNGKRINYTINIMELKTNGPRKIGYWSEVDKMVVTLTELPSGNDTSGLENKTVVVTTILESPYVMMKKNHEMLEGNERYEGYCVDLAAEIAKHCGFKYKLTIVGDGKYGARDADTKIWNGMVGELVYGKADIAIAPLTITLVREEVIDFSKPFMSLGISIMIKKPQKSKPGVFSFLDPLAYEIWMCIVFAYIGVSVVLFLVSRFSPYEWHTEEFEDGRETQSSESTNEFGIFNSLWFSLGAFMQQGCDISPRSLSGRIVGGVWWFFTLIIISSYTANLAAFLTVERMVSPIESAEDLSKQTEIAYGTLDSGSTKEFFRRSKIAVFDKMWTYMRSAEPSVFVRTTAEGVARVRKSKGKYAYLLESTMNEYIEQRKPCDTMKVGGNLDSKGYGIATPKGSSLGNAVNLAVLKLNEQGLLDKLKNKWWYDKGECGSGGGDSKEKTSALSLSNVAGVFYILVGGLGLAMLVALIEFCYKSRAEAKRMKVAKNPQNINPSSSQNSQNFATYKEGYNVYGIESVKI

Structure (SMILES)	Ki (Glutamate NMDA receptor [1]) [µM]	Ki [2] [µM]	Ki (Glutamate receptor 2) [µM]	Ki [3] [µM]	IC50 [4] [µM]	Ki (Glutamate receptor 1) [µM]	Ki (Glutamate receptor 4) [µM]	EC50 [5] [µM]	Ki (Glutamate receptor 3) [µM]	IC50 [6] [µM]	Ki (Glutamate NMDA receptor [7]) [µM]	Activity [8] [%]	EC50 [9] [µM]
CC(C)n1nnc(-c2onc(O)c2CC(N)C(=O)O)n1 (stereo not given)	> 100	> 100	2.9	31	> 100	0.01	2.4	71	3.7	6.2	–	–	–
Cn1nnc(-c2onc(O)c2C[C@H](N)C(=O)O)n1	–	19	0.0039	8.1e-05	11	–	0.0027	–	–	0.009	> 100	–	–
CCn1nnc(-c2onc(O)c2CC(N)C(=O)O)n1 (stereo not given)	> 100	> 100	0.08	2.9	> 100	0.15	0.044	3.5	0.045	0.13	–	–	–
CCCn1nnc(-c2onc(O)c2CC(N)C(=O)O)n1 (stereo not given)	> 100	> 100	1.6	5.5	> 100	0.0052	0.73	32	1.2	2.5	–	–	–
NC(Cc1c(O)noc1-c1nnnn1Cc1ccccc1)C(=O)O (racemic)	> 100	–	–	–	> 100	–	–	–	–	> 100	–	–	–
NC(Cc1c(O)noc1-c1nnn(Cc2ccccc2)n1)C(=O)O (racemic)	87	39	–	58	> 100	–	–	32	–	2.7	–	84	95
Cc1onc(O)c1CC(N)C(=O)O (racemic) [(R,S)-AMPA]	–	> 1000	–	–	> 100	–	–	–	–	–	–	–	–

— ChEMBL document CHEMBL1139881, “A tetrazolyl-substituted subtype-selective AMPA receptor agonist” (J Med Chem, 2007)
